Residue numbers refer to the chain shown, from its start. In brackets after ≈: the same amount, converted by molar mass.
Legend:
KIF5B-RET WT = molecular target: T1, KIF5B-RET WT (Homo sapiens, UniProt P07949); test: Cell viability assay (CellTiter-Glo) in BaF3 cells expressing KIF5B-RET (B/KR), WT; type: cell-based; details: B/KR cell line, read-out: IC50 of RET mutants, WT
T1 construct: KIF5B (fusion partner); expressed in transfected cells; host or cells: BaF3; the other entry of the earlier key: KIF5B (P33176, Kinesin-1 heavy chain)
T1 sequence (P07949 with tags, fused parts or gaps): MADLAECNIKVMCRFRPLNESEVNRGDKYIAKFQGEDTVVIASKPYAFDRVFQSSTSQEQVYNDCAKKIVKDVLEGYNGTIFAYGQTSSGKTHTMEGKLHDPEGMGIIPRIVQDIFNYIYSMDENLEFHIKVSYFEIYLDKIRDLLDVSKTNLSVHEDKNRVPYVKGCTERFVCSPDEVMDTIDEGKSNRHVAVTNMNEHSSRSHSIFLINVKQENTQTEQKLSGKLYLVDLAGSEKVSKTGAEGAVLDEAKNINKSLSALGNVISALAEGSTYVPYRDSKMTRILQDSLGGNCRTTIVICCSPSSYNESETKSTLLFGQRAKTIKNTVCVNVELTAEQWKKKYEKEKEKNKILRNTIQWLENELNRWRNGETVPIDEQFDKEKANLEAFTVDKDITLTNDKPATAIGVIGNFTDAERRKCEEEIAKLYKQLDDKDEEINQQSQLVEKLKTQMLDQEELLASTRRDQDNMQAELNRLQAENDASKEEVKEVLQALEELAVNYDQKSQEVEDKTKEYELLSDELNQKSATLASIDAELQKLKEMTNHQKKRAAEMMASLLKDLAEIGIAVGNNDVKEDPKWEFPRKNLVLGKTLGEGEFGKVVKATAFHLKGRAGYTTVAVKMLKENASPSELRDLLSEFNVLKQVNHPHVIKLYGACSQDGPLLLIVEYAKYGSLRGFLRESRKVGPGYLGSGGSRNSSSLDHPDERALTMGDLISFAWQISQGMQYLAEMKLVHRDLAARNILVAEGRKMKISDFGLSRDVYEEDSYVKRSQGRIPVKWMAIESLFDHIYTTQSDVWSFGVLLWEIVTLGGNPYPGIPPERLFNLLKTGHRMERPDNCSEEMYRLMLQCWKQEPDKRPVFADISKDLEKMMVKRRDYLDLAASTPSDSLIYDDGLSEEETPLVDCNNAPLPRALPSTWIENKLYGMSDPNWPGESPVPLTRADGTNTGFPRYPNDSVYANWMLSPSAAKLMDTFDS
From the text: (§1) KIF5B-RET G810D and G810V mutations were generated by PCR-based mutagenesis with primers containing the desired mutations. […] Drug screening and ICso data of BaF3/KR and mutation cells were from 2 or more experiments performed in 3 technical replicates.

KIF5B-RET V804M = molecular target: T2, KIF5B-RET V804M (Homo sapiens, UniProt P07949, V804M); test: Cell viability assay (CellTiter-Glo) in BaF3 cells expressing KIF5B-RET V804M; type: cell-based; details: B/KR mutant cell line V804M; read-out: IC50 of RET mutants, V804M
T2 construct: KIF5B (fusion partner); expressed in transfected cells; host or cells: BaF3; the other entry of the earlier key: KIF5B (P33176, Kinesin-1 heavy chain)
T2 sequence (P07949 713-1063 V804M limits assumed): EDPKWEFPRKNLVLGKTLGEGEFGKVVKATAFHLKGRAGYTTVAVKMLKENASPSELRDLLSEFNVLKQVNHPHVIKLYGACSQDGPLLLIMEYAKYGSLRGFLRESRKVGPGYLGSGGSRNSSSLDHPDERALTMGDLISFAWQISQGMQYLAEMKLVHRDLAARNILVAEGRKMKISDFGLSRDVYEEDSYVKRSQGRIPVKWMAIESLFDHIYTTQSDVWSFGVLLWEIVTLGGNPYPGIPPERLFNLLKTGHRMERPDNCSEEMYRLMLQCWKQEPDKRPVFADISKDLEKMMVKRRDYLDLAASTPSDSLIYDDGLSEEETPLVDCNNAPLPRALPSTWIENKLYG
From the text: as §1

KIF5B-RET G810A = molecular target: T3, KIF5B-RET G810A (Homo sapiens, UniProt P07949, G810A); test: Cell viability assay (CellTiter-Glo) in BaF3 cells expressing KIF5B-RET G810A; type: cell-based; details: B/KR mutant cell line G810A; read-out: IC50 of RET mutants, G810A
T3 construct: KIF5B (fusion partner); expressed in transfected cells; host or cells: BaF3; the other entry of the earlier key: KIF5B (P33176, Kinesin-1 heavy chain)
T3 sequence (P07949 713-1063 G810A limits assumed): T2 sequence (P07949 713-1063 V804M limits assumed) with M92V, G98A
From the text: as §1

KIF5B-RET G810C = molecular target: T4, KIF5B-RET G810C (Homo sapiens, UniProt P07949, G810C); test: Cell viability assay (CellTiter-Glo) in BaF3 cells expressing KIF5B-RET G810C; type: cell-based; details: B/KR mutant cell line G810C; read-out: IC50 of RET mutants, G810C
T4 construct: KIF5B (fusion partner); expressed in transfected cells; host or cells: BaF3; the other entry of the earlier key: KIF5B (P33176, Kinesin-1 heavy chain)
T4 sequence (P07949 713-1063 G810C limits assumed): T2 sequence (P07949 713-1063 V804M limits assumed) with M92V, G98C
From the text: as §1

KIF5B-RET G810D = molecular target: T5, KIF5B-RET G810D (Homo sapiens, UniProt P07949, G810D); test: Cell viability assay (CellTiter-Glo) in BaF3 cells expressing KIF5B-RET G810D; type: cell-based; details: B/KR mutant cell line G810D; read-out: IC50 of RET mutants, G810D
T5 construct: KIF5B (fusion partner); expressed in transfected cells; host or cells: BaF3 (lentiviral vector); the other entry of the earlier key: KIF5B (P33176, Kinesin-1 heavy chain)
T5 sequence (P07949 713-1063 G810D limits assumed): T2 sequence (P07949 713-1063 V804M limits assumed) with M92V, G98D
From the text: as §1

KIF5B-RET G810R = molecular target: T6, KIF5B-RET G810R (Homo sapiens, UniProt P07949, G810R); test: Cell viability assay (CellTiter-Glo) in BaF3 cells expressing KIF5B-RET G810R; type: cell-based; details: B/KR mutant cell line G810R; read-out: IC50 of RET mutants, G810R
T6 construct: KIF5B (fusion partner); expressed in transfected cells; host or cells: BaF3; the other entry of the earlier key: KIF5B (P33176, Kinesin-1 heavy chain)
T6 sequence (P07949 713-1063 G810R limits assumed): T2 sequence (P07949 713-1063 V804M limits assumed) with M92V, G98R
From the text: as §1

KIF5B-RET G810S = molecular target: T7, KIF5B-RET G810S (Homo sapiens, UniProt P07949, G810S); test: Cell viability assay (CellTiter-Glo) in BaF3 cells expressing KIF5B-RET G810S; type: cell-based; details: B/KR mutant cell line G810S; read-out: IC50 of RET mutants, G810S
T7 construct: KIF5B (fusion partner); expressed in transfected cells; host or cells: BaF3; the other entry of the earlier key: KIF5B (P33176, Kinesin-1 heavy chain)
T7 sequence (P07949 713-1063 G810S limits assumed): T2 sequence (P07949 713-1063 V804M limits assumed) with M92V, G98S
From the text: as §1

KIF5B-RET G810V = molecular target: T8, KIF5B-RET G810V (Homo sapiens, UniProt P07949, G810V); test: Cell viability assay (CellTiter-Glo) in BaF3 cells expressing KIF5B-RET G810V; type: cell-based; details: B/KR mutant cell line G810V; read-out: IC50 of RET mutants, G810V
T8 construct: KIF5B (fusion partner); expressed in transfected cells; host or cells: BaF3 (lentiviral vector); the other entry of the earlier key: KIF5B (P33176, Kinesin-1 heavy chain)
T8 sequence (P07949 713-1063 G810V limits assumed): T2 sequence (P07949 713-1063 V804M limits assumed) with M92V, G98V
From the text: as §1

hERG = hERG (Homo sapiens, UniProt Q12809); test: hERG inhibition; type: biochemical
Chain of hERG (Q12809 whole entry): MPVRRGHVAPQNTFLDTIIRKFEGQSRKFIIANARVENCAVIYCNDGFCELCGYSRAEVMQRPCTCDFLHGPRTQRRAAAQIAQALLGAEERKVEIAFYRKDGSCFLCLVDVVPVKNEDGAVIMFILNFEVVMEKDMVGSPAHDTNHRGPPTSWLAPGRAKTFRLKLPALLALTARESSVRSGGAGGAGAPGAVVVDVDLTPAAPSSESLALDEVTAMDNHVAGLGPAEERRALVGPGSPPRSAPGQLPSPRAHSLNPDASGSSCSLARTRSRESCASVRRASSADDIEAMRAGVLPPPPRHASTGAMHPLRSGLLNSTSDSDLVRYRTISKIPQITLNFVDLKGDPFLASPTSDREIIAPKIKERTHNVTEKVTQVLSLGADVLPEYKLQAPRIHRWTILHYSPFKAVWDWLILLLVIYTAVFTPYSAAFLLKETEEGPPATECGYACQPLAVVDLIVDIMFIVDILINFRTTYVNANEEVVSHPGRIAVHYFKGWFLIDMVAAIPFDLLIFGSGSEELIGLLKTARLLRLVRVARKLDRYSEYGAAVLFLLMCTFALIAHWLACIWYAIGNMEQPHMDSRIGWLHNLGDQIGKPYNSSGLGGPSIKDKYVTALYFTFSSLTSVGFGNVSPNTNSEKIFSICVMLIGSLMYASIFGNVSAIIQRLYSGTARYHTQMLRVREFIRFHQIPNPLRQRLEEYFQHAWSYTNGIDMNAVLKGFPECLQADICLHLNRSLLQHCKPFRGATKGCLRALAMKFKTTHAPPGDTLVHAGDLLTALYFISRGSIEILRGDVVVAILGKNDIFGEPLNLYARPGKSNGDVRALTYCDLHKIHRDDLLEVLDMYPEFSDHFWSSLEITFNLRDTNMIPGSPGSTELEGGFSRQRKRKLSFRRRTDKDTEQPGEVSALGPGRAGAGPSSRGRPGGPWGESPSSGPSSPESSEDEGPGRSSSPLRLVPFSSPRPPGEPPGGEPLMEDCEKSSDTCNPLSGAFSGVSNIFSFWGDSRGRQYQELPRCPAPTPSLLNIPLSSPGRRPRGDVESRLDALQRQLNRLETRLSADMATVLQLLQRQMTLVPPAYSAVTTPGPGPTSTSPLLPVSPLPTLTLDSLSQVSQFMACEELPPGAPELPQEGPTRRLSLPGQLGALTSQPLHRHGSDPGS

[1] = Protein binding (human serum); type: in vitro ADME
Solubility at pH 6.8 = type: physicochemical
B/KR(G810C) CDX tumors = test: In vivo activity on B/KR(G810C) CDX tumors in mice; details: daily oral gavage
Method: Mice bearing B/KR(G810C) CDX tumors were treated with the test compounds at the indicated doses by daily oral gavage. Tumor dimensions were measured with a caliper, and tumor sizes were estimated using the Formula: tumor size=(Length×width×width)/2. The data shown are the mean±sd.
BaF3/KR(G810C) cells were tested free of 20 mouse pathogens (IDEXX, Columbia, MO) and mycoplasma. Cells (1×10^7 cells/0.1 ml/each) were inoculated subcutaneously into the right flank of approximately 5-week old female SHO mice (Charles River, Wilmington, MA). After tumor formation, mice (6 mice/group) were treated with vehicle or test compounds at the indicated doses by oral gavage once a day. Tumor size and animal body weight were measured as described. Statistical analysis was performed using the unpaired Mann-Whitney test.

| SMILES | IC50 (KIF5B-RET WT) [nM] | IC50 (KIF5B-RET V804M) [nM] | IC50 (KIF5B-RET G810A) [nM] | IC50 (KIF5B-RET G810C) [nM] | IC50 (KIF5B-RET G810D) [nM] | IC50 (KIF5B-RET G810R) [nM] | IC50 (KIF5B-RET G810S) [nM] | IC50 (KIF5B-RET G810V) [nM] | IC50 (hERG) [nM] | protein-bound [1] [%] | solubility (Solubility at pH 6.8) [µM] | effect on B/KR(G810C) CDX tumors (B/KR(G810C) CDX tumors; 25 mg/Kg) | effect on B/KR(G810C) CDX tumors (B/KR(G810C) CDX tumors; 50 mg/Kg) |
| --- | --- | --- | --- | --- | --- | --- | --- | --- | --- | --- | --- | --- | --- |
| CN1CCN(Cc2ccc(NC(=O)c3cncc(C#Cc4cnc5[nH]ncc5c4)c3)cc2C(F)(F)F)CC1 [Example 1, 5-((1H-Pyrazolo[3,4-b]pyridin-5-yl)ethynyl)-N-(4-((4-methylpiperazin-1-yl)methyl)-3-(trifluoromethyl)phenyl)nicotinamide] | 1.7 ± 0.08 | 14.1 ± 0.54 | 1.56 ± 0.07 | 11.4 ± 0.32 | 5.21 ± 0.36 | 24.5 ± 0.79 | 7.76 ± 0.33 | 4.1 ± 0.3 |  |  |  |  |  |
| CN1CCN(Cc2ccc(NC(=O)c3cncc(C#Cc4cnc(N)nc4)c3)cc2C(F)(F)F)CC1 [Example 2, 5-((2-Aminopyrimidin-5-yl)ethynyl)-N-(4-((4-methylpiperazin-1-yl)methyl)-3-(trifluoromethyl)phenyl)nicotinamide] | 3.49 ± 0.16 | 20.3 ± 1.09 | 3.89 ± 0.07 | 12.2 ± 0.63 | 1.47 ± 0.05 | 46.8 ± 1.11 | 8.02 ± 0.21 | 8.34 ± 0.36 | 23000 | 94 | 117 (≈ 58 µg/mL) | tumor regression |  |
| CN1CCN(Cc2ccc(NC(=O)c3cncc(C#Cc4cnc(N)c5ncccc45)c3)cc2C(F)(F)F)CC1 [HSN608, reference compound] |  |  |  |  |  |  |  |  |  | 99 | 0.07 (≈ 0.0382 µg/mL) |  | tumor regression |

Reference: patent publication US20260226039A1, “INHIBITORS OF SOLVENT FRONT MUTATED RET KINASE” (Purdue Research Foundation, priority 2023, published 2026)
